Patent US9266921B2, “PGC-1α-modulating peptides” (Lipotec, S.A., priority 2011, dated 2016)

How the values were obtained:
human PGC-1α promoter = test: Modulation of the human PGC-1α promoter activity (luciferase reporter, Hep G2); format: cell-based; details: Hep G2 transfected with luciferase under human PGC-1α promoter; peptide 0.5 mg/mL, 24 hours; normalized to carrier = 100%
Procedure: The modulation capacity of the promoter of human PGC-1α is evaluated by the peptides in the invention in the hepatocellular Hep G2 carcinoma cell line transfected with the luciferase gene under the regulation of the human PGC-1α promoter. The cells are seeded at a density of 20,000 cells/25 cm^2 plate) and incubated for 24 hours in RPMI-1640 complete medium, after which the peptides of the invention are added at 0.5 mg/mL and are incubated for another 24 hours. The RPMI-1640 complete medium (carrier) is used as a negative control. The measurement of the promoter's activity is carried out using the Steady-Glo® Luciferase Assay System (PROMEGA) kit following the manufacturer's instructions. The luminescence values are read on a luminometer […] and the activity of the promoter is determined, which is normalized with regards to the values of the negative control.

[1] = test system: subcutaneous human pre-adipocytes; test: Accumulation of lipids in subcutaneous human pre-adipocytes (AdipoRed); format: cell-based; details: peptide 0.1 mg/mL in PDM-2, 10 days, PGM-2 = 0%, PDM-2 = 100%
Procedure: The levels of accumulation of lipids in subcutaneous human pre-adipocytes were quantified using the AdipoRed™ (Lonza) reagent. 100,000 cells were cultivated per well in PGM™-2 medium at a final volume of 100 μL. After 24 hours, the differentiation from pre-adipocytes to mature adipocytes was induced changing the medium to PDM-2 in the presence of the different peptides at 0.1 mg/mL. After 10 days of treatment with the peptides in differentiation medium, the quantity of intracellular lipids was evaluated using the AdipoRed™ reagent following the manufacturer's instructions measuring the fluorescence of the samples (length of the excitation wave 485 nm and emission 535 nm) after adding the AdipoRed™ reagent. The fluorescence values were corrected with regards to the basal fluorescence and were normalized with regards to the maximum differentiation controls (PDM-2 medium, maximum accumulation of lipids) and minimum differentiation (PGM™-2 medium, minimum accumulation of lipids).

PGC-1α gene = test: Transcription of the PGC-1α gene, quantitative real time PCR in differentiating pre-adipocytes; format: cell-based; details: subcutaneous human adipocytes; peptide 0.1 mg/mL in PDM-2, 10 days; PGM-2 = 0%, PDM-2 = 100%
Procedure: The expression levels of the gene PGC-1α are measured by PCR in quantitative real time. A cell line of subcutaneous human pre-adipocytes is incubated in PGM™-2 medium at a density of 100,000 cells/well in a volume of 100 μL for 24 hours. Differentiation is induced by changing the medium to PDM-2 in the presence of the peptides Ac-L-Ser-L-Ile-L-Tyr-L-Val-L-Ala-L-Thr-NH2 (Ac-SEQ ID NO. 1-NH2) and Ac-L-Ser-L-Val-L-Val-L-Val-L-Arg-L-Thr-NH2 (Ac-SEQ ID NO. 2-NH2) at 0.1 mg/mL for 10 days, after which the cells were lysed and the RNA is extracted. The PCR is carried out in quantitative real time using the Taqman® Gene Expression Cells-to-CT (Applied Biosystems) kit according to the manufacturer's instructions and with the appropriate probes (TaqMan® Hs01016719_m1 probe for the PGC-1α gene and Taqman® Hs99999901_s1 probe for the eukaryotic ribosomal subunit 18S, the endogenous control of expression) and the values are normalized with regards to the maximum differentiation controls (PDM-2 medium, maximum quantity of PGC-1α mRNA) and minimal differentiation (PGM™-2 medium, minimum quantity of PGC-1α mRNA).

cellulitis (thigh) = test: Reduction of cellulitis in volunteers, length of the dermo-hypodermic junction line (ultrasound); format: in vivo, human; details: after 21 days of treatment
Source text: 20 Caucasian volunteers between the age of 25 and 45, with healthy skin and affected by cellulitis levels I-III according to the pinch test applied the composition from Example 15 to one thigh and a placebo composition (the same composition from Example 15 without the peptide) to the other thigh, twice a day for 21 days. The length of the dermo-hypodermic junction line was instrumentally assessed using the Ultrasound Scanner Dermascan C® (Cortex Technology, Denmark) at the beginning of the study and at the end of the study (21 days). The measurement of the length of the dermo-hypodermic junction line is related to the formation of cellulitis and skin irregularities [Quatresooz P et al., “Cellulite histopathology and related mechanobiology”, (2006), Int. J. Cosm. Sci., 28, 207-210]. A reduction in the length of the dermo-hypodermic junction line leads to softer and more regular skin, and as such cellulitis will be less visible. The statistical analysis of the evolution of the parameters measured during the study was carried out using the Student's t-test. The statistical significance threshold was established at 5%.

Ac-L-His-L-Ile-L-Tyr-L-Val-L-Ala-L-Val-NH2 (Ac-HIYVAV-NH2) [Ac-SEQ ID NO. 25-NH2]
Activity of the PGC-1α promoter (%) (human PGC-1α promoter): 76%

Ac-L-His-L-Ile-L-Tyr-L-Val-L-Arg-L-Thr-NH2 (Ac-HIYVRT-NH2) [Ac-SEQ ID NO. 10-NH2]
Activity of the PGC-1α promoter (%) (human PGC-1α promoter): 115%

Ac-L-His-L-Ile-L-Tyr-L-Val-L-Arg-L-Val-NH2 (Ac-HIYVRV-NH2) [Ac-SEQ ID NO. 33-NH2]
Activity of the PGC-1α promoter (%) (human PGC-1α promoter): 117%

Ac-L-His-L-Ile-L-Val-L-Val-Gly-L-Thr-NH2 (Ac-HIVVGT-NH2) [Ac-SEQ ID NO. 21-NH2]
% Accumulation of intracellular lipids [1]: 114%
Activity of the PGC-1α promoter (%) (human PGC-1α promoter): 110%

Ac-L-His-L-Ile-L-Val-L-Val-L-Ala-L-Thr-NH2 (Ac-HIVVAT-NH2) [Ac-SEQ ID NO. 6-NH2]
Activity of the PGC-1α promoter (%) (human PGC-1α promoter): 72%

Ac-L-His-L-Ile-L-Val-L-Val-L-Ala-L-Val-NH2 (Ac-HIVVAV-NH2) [Ac-SEQ ID NO. 29-NH2]
Activity of the PGC-1α promoter (%) (human PGC-1α promoter): 81%

Ac-L-His-L-Ile-L-Val-L-Val-L-Arg-L-Val-NH2 (Ac-HIVVRV-NH2) [Ac-SEQ ID NO. 37-NH2]
Activity of the PGC-1α promoter (%) (human PGC-1α promoter): 118%

Ac-L-His-L-Val-L-Tyr-L-Val-Gly-L-Val-NH2 (Ac-HVYVGV-NH2) [Ac-SEQ ID NO. 43-NH2]
Activity of the PGC-1α promoter (%) (human PGC-1α promoter): 75%

Ac-L-His-L-Val-L-Tyr-L-Val-L-Ala-L-Thr-NH2 (Ac-HVYVAT-NH2) [Ac-SEQ ID NO. 4-NH2]
Activity of the PGC-1α promoter (%) (human PGC-1α promoter): 77%

Ac-L-His-L-Val-L-Tyr-L-Val-L-Ala-L-Val-NH2 (Ac-HVYVAV-NH2) [Ac-SEQ ID NO. 27-NH2]
Activity of the PGC-1α promoter (%) (human PGC-1α promoter): 42%

Ac-L-His-L-Val-L-Tyr-L-Val-L-Arg-L-Thr-NH2 (Ac-HVYVRT-NH2) [Ac-SEQ ID NO. 12-NH2]
% Accumulation of intracellular lipids [1]: 84%
Activity of the PGC-1α promoter (%) (human PGC-1α promoter): 114%

Ac-L-His-L-Val-L-Tyr-L-Val-L-Arg-L-Val-NH2 (Ac-HVYVRV-NH2) [Ac-SEQ ID NO. 35-NH2]
Activity of the PGC-1α promoter (%) (human PGC-1α promoter): 132%

Ac-L-His-L-Val-L-Val-L-Val-L-Ala-L-Thr-NH2 (Ac-HVVVAT-NH2) [Ac-SEQ ID NO. 8-NH2]
Activity of the PGC-1α promoter (%) (human PGC-1α promoter): 89%

Ac-L-His-L-Val-L-Val-L-Val-L-Arg-L-Val-NH2 (Ac-HVVVRV-NH2) [Ac-SEQ ID NO. 39-NH2]
Activity of the PGC-1α promoter (%) (human PGC-1α promoter): 186%

Ac-L-Ser-L-Ile-L-Tyr-L-Val-Gly-L-Thr-NH2 (Ac-SIYVGT-NH2) [Ac-SEQ ID NO. 18-NH2]
Activity of the PGC-1α promoter (%) (human PGC-1α promoter): 64%

Ac-L-Ser-L-Ile-L-Tyr-L-Val-Gly-L-Val-NH2 (Ac-SIYVGV-NH2) [Ac-SEQ ID NO. 42-NH2]
Activity of the PGC-1α promoter (%) (human PGC-1α promoter): 64%

Ac-L-Ser-L-Ile-L-Tyr-L-Val-L-Ala-L-Thr-NH2 (Ac-SIYVAT-NH2) [Ac-SEQ ID NO. 1-NH2]
% Accumulation of intracellular lipids [1]: 33%
% relative quantity of PGC-1α mRNA (PGC-1α gene): 63%
Activity of the PGC-1α promoter (%) (human PGC-1α promoter): 57%
effect on the length of the dermo-hypodermic junction line and cellulitis (cellulitis (thigh)): induces a reduction in the length of the dermo-hypodermic junction line

Ac-L-Ser-L-Ile-L-Tyr-L-Val-L-Ala-L-Val-NH2 (Ac-SIYVAV-NH2) [Ac-SEQ ID NO. 26-NH2]
Activity of the PGC-1α promoter (%) (human PGC-1α promoter): 40%

Ac-L-Ser-L-Ile-L-Tyr-L-Val-L-Arg-L-Thr-NH2 (Ac-SIYVRT-NH2) [Ac-SEQ ID NO. 11-NH2]
% Accumulation of intracellular lipids [1]: 76%
Activity of the PGC-1α promoter (%) (human PGC-1α promoter): 151%

Ac-L-Ser-L-Ile-L-Tyr-L-Val-L-Arg-L-Val-NH2 (Ac-SIYVRV-NH2) [Ac-SEQ ID NO. 34-NH2]
Activity of the PGC-1α promoter (%) (human PGC-1α promoter): 134%

Ac-L-Ser-L-Ile-L-Val-L-Val-Gly-L-Thr-NH2 (Ac-SIVVGT-NH2) [Ac-SEQ ID NO. 22-NH2]
% Accumulation of intracellular lipids [1]: 43%
Activity of the PGC-1α promoter (%) (human PGC-1α promoter): 63%

Ac-L-Ser-L-Ile-L-Val-L-Val-Gly-L-Val-NH2 (Ac-SIVVGV-NH2) [Ac-SEQ ID NO. 46-NH2]
% Accumulation of intracellular lipids [1]: 38%
Activity of the PGC-1α promoter (%) (human PGC-1α promoter): 78%

Ac-L-Ser-L-Ile-L-Val-L-Val-L-Ala-L-Thr-NH2 (Ac-SIVVAT-NH2) [Ac-SEQ ID NO. 7-NH2]
Activity of the PGC-1α promoter (%) (human PGC-1α promoter): 145%

Ac-L-Ser-L-Ile-L-Val-L-Val-L-Ala-L-Val-NH2 (Ac-SIVVAV-NH2) [Ac-SEQ ID NO. 30-NH2]
Activity of the PGC-1α promoter (%) (human PGC-1α promoter): 120%

Ac-L-Ser-L-Ile-L-Val-L-Val-L-Arg-L-Thr-NH2 (Ac-SIVVRT-NH2) [Ac-SEQ ID NO. 15-NH2]
Activity of the PGC-1α promoter (%) (human PGC-1α promoter): 150%

Ac-L-Ser-L-Ile-L-Val-L-Val-L-Arg-L-Val-NH2 (Ac-SIVVRV-NH2) [Ac-SEQ ID NO. 38-NH2]
Activity of the PGC-1α promoter (%) (human PGC-1α promoter): 180%

Ac-L-Ser-L-Val-L-Tyr-L-Val-Gly-L-Thr-NH2 (Ac-SVYVGT-NH2) [Ac-SEQ ID NO. 20-NH2]
Activity of the PGC-1α promoter (%) (human PGC-1α promoter): 76%

Ac-L-Ser-L-Val-L-Tyr-L-Val-Gly-L-Val-NH2 (Ac-SVYVGV-NH2) [Ac-SEQ ID NO. 44-NH2]
Activity of the PGC-1α promoter (%) (human PGC-1α promoter): 67%

Ac-L-Ser-L-Val-L-Tyr-L-Val-L-Ala-L-Thr-NH2 (Ac-SVYVAT-NH2) [Ac-SEQ ID NO. 5-NH2]
% Accumulation of intracellular lipids [1]: 48%
Activity of the PGC-1α promoter (%) (human PGC-1α promoter): 69%

Ac-L-Ser-L-Val-L-Tyr-L-Val-L-Arg-L-Thr-NH2 (Ac-SVYVRT-NH2) [Ac-SEQ ID NO. 13-NH2]
% Accumulation of intracellular lipids [1]: 79%
Activity of the PGC-1α promoter (%) (human PGC-1α promoter): 131%

Ac-L-Ser-L-Val-L-Tyr-L-Val-L-Arg-L-Val-NH2 (Ac-SVYVRV-NH2) [Ac-SEQ ID NO. 36-NH2]
Activity of the PGC-1α promoter (%) (human PGC-1α promoter): 136%

Ac-L-Ser-L-Val-L-Val-L-Val-Gly-L-Thr-NH2 (Ac-SVVVGT-NH2) [Ac-SEQ ID NO. 24-NH2]
Activity of the PGC-1α promoter (%) (human PGC-1α promoter): 90%

Ac-L-Ser-L-Val-L-Val-L-Val-Gly-L-Val-NH2 (Ac-SVVVGV-NH2) [Ac-SEQ ID NO. 48-NH2]
% Accumulation of intracellular lipids [1]: 37%
Activity of the PGC-1α promoter (%) (human PGC-1α promoter): 75%

Ac-L-Ser-L-Val-L-Val-L-Val-L-Ala-L-Thr-NH2 (Ac-SVVVAT-NH2) [Ac-SEQ ID NO. 9-NH2]
Activity of the PGC-1α promoter (%) (human PGC-1α promoter): 62%

Ac-L-Ser-L-Val-L-Val-L-Val-L-Ala-L-Val-NH2 (Ac-SVVVAV-NH2) [Ac-SEQ ID NO. 32-NH2]
Activity of the PGC-1α promoter (%) (human PGC-1α promoter): 82%

Ac-L-Ser-L-Val-L-Val-L-Val-L-Arg-L-Val-NH2 (Ac-SVVVRV-NH2) [Ac-SEQ ID NO. 40-NH2]
Activity of the PGC-1α promoter (%) (human PGC-1α promoter): 141%
